Measurements taken from patent publication US20250163061A1 (Bala Therapeutics, Inc., priority 2021, published 2025).

Legend:
recombinant MEN1 protein = recombinant MEN1 protein (Homo sapiens (Human), UniProt O00255); assay: Primary fluorescence polarization assay of MEN1 activity inhibition (MEN1 / MLL4-43 peptide interaction); format: binding; conditions: MEN1 10 nM, fluorescein-labeled MLL4-43 peptide 0.5 nM
Procedure: Compound activity was determined using recombinant MEN1 protein (Creativebiomart, Cat #MEN1-35H) and a custom fluorescein-labeled MLL4-43 peptide (Eton Bioscience Inc.). Interaction between MEN1 and MLL4-43 in the presence of compounds was determined by fluorescence polarization assay using a Microplate Reader ClarioStar Plus. The reaction was carried out in assay buffer (50 mM TRIS-HCl pH 7.4-7.6, 50 mM NaCl, 1 mM DTT, 0.1 mg/ml BSA). The compounds were dispensed on a 384 well Diamond Well Plate (Axigen, Cat #P-384-120SQ-C-S) using the Biomek FX liquid handling system at 100× solutions of compounds in DMSO. 2×MEN1 mix (final concentration of MEN1 10 nM) was prepared in Assay buffer and 10 μl of mixture per well was added into 384 w white Reaction plate with NBS (Corning, Cat #4513). 10 μl of Assay buffer w/o MEN1 was used for negative control. Plates were centrifuged for 1 min at 100 g. Next step the Compounds were added to Reaction plate using Biomek station via following steps: 3 μl of 100× compounds (in DMSO) were mixed thoroughly with 27 μl Assay Buffer, then 2 μl of this mixture was added to Reaction plate with 10 μl of MEN1 mix. Plates were centrifuged for 1 min at 100 g and incubated for 20 min at room temperature. Next 8 μL of MLL4-43 peptide per well was added to final concentration of MLL 0.5 nM. Plates were incubated for 1 hour at room temperature. Then fluorescence polarization was measured using Microplate Reader.

MV4-11 = MV4-11 cellular growth inhibition assay (CellTiter-Glo); format: cell-based; conditions: Homo sapiens, 168 h, MV4-11 cells, 7 days of incubation
Procedure: (§1) HEK293 (Institute of Cytology Russian Academy of Science), MV4-11 (ATCC, CRL-9591), MOLM-13 (AcceGen, ABC-TC517S) were seeded at a density of 500 cells per well (HEK293) and 2000 cells per well (MV4-11, MOLM-13) in a 384-well clear bottom plate (Greiner Cat #781090) in 45 μl total volume of DMEM (PanEco, Cat #C420, Russia) or RPMI (PanEco, Cat #C330, Russia) with 10% FBS (HyClone Cat #SV30160.03). HEK293 were allowed to adhere overnight at 37° C., 5% CO2. 500× compounds solutions in DMSO (Sigma Cat #D2650) were prepared into Cmpnds plate (Diamond Well Plate, Axigen, Cat #P-384-120SQ-C-S) and DMSO only control was included. 1 μl of 500× compounds (Cmpnds plate) was added to 49 μl of culture medium into Dilution plate (Diamond Well Plate, Axigen, Cat #P-384-120SQ-C-S), mixed and then 5 μl of 10× compounds solutions were transferred to cells followed by centrifugation at 100 g for 1 min. Final DMSO concentration was 0.2%. After 3 days of incubation, 10 μl of 1× compounds were added to cells. After 7 days of incubation, 12 μl of CellTiter-Glo (Promega, CAT #G7572) were added to the cells, plate was centrifuged at 100 g for 1 min and luminescence signal was measured using Microplate Reader (CLARIOStar).

MOLM-13 = MOLM-13 cellular growth inhibition assay (CellTiter-Glo); format: cell-based; conditions: Homo sapiens, 168 h, MOLM-13 cells, 7 days of incubation
Procedure: as §1

[1] = HEK293 cellular growth inhibition assay (CellTiter-Glo); format: cell-based; conditions: human, HEK293 cells, 7 days of incubation
Procedure: as §1

recombinant MEN1 protein, sequence (O00255 whole entry): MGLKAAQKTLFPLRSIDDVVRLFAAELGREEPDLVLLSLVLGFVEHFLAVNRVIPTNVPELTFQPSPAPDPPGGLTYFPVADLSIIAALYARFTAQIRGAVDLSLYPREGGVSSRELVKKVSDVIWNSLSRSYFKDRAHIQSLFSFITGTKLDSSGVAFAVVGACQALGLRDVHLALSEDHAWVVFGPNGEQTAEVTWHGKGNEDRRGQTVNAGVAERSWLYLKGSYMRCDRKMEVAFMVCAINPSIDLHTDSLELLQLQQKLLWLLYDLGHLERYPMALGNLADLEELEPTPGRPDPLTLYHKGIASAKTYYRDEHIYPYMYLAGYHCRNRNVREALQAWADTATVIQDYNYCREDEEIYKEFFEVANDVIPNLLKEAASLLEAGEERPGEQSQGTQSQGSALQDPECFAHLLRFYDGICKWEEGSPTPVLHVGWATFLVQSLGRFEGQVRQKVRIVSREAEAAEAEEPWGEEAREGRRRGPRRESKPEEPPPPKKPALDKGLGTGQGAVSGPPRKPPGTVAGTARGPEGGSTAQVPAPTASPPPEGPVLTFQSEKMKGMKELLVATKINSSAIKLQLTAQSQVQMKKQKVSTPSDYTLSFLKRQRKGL

## Cc1c(CN2CCC3(CC2)CN(c2ncnc4ccc(CC(F)(F)F)cc24)C3)ccc2c1cc(C#N)n2CC1CNC(=O)N1 (stereo not drawn) [Compound 6, 4-Methyl-1-[(2-oxoimidazolidin-4-yl)methyl]-5-({2-[6-(2,2,2-trifluoroethyl)quinazolin-4-yl]-2,7-diazaspiro[3.5]non-7-yl}methyl)-1H-indole-2-carbonitrile]
Recombinant MEN1 protein
  EC50: 1000 to 5000 nM

## Cc1c(CN2CCC3(CC2)CN(c2ncnc4ccc(CC(F)(F)F)cc24)C3)ccc2c1cc(C#N)n2CC1CN(S(C)(=O)=O)CCO1 (stereo not drawn) [Compound 9]
Recombinant MEN1 protein
  EC50: 75 to 500 nM

## Cc1c(CN2CCC3(CC2)CN(c2ncnc4ccc(CC(F)(F)F)cc24)C3)ccc2c1cc(C#N)n2CC1CN(CC(C)C)C(=O)CO1 (stereo not drawn) [Compound 31, 1-[(4-Isobutyl-5-oxomorpholin-2-yl)methyl]-4-methyl-5-({2-[6-(2,2,2-trifluoroethyl)quinazolin-4-yl]-2,7-diazaspiro[3.5]non-7-yl}methyl)-1H-indole-2-carbonitrile]
Recombinant MEN1 protein
  EC50: 75 to 500 nM

## CCS(=O)(=O)N[C@H]1CC[C@H](Cn2c(C#N)cc3c(C)c(CN4CCC5(CC4)CN(c4ncnc6ccc(CC(F)(F)F)cc46)C5)ccc32)CC1 [Compound 41]
Recombinant MEN1 protein
  EC50: 75 to 500 nM

## Cc1c(CN2CCC3(CC2)CN(c2ncnc4ccc(CC(F)(F)F)cc24)C3)ccc2c1cc(C#N)n2CC1CN(C)C(=O)CN1 (stereo not drawn) [Compound 46, 4-methyl-1-[(4-methyl-5-oxo-piperazin-2-yl)methyl]-5-[[2-[6-(2,2,2-trifluoroethyl)quinazolin-4-yl]-2,7-diazaspiro[3.5]nonan-7-yl]methyl]indole-2-carbonitrile]
Recombinant MEN1 protein
  EC50: 1000 to 5000 nM

## Cc1c(CN2CCC3(CC2)CN(c2ncnc4ccc(CC(F)(F)F)cc24)C3)ccc2c1cc(C#N)n2CC1CCC(=O)NC1 (stereo not drawn) [Compound 72, 4-Methyl-1-[(6-oxopiperidin-3-yl)methyl]-5-({2-[6-(2,2,2-trifluoroethyl)quinazolin-4-yl]-2,7-diazaspiro[3.5]non-7-yl}methyl)-1H-indole-2-carbonitrile]
MV4-11
  CC50: 100 to 500 nM
MOLM-13
  CC50: 500 to 1000 nM
[1]
  CC50 at 7 days: ≤ 2000 nM

## CCCCS(=O)(=O)N1CCCN(C(C)Cn2c(C#N)cc3c(C)c(CN4CCC5(CC4)CN(c4ncnc6ccc(CC(F)(F)F)cc46)C5)ccc32)CC1 (stereo not drawn) [Compound 73, 1-{2-[4-(Butylsulfonyl)-1,4-diazepan-1-yl]propyl}-4-methyl-5-({2-[6-(2,2,2-trifluoroethyl)quinazolin-4-yl]-2,7-diazaspiro[3.5]non-7-yl}methyl)-1H-indole-2-carbonitrile]
MV4-11
  CC50: ≤ 100 nM
MOLM-13
  CC50: 500 to 1000 nM
[1]
  CC50 at 7 days: > 20000 nM

## Cc1c(CN2CCC3(CC2)CN(c2nncc4ccc(CC(F)(F)F)cc24)C3)ccc2c1cc(C#N)n2CC(C)N1CCN(S(C)(=O)=O)CC1 (stereo not drawn) [Compound 79, 4-Methyl-1-[2-(4-methylsulfonylpiperazin-1-yl)propyl]-5-[[2-[7-(2,2,2-trifluoroethyl)phthalazin-1-yl]-2,7-diazaspiro[3.5]nonan-7-yl]methyl]indole-2-carbonitrile]
MV4-11
  CC50: 500 to 1000 nM
MOLM-13
  CC50: 1000 to 5000 nM
[1]
  CC50 at 7 days: 5000 to 10000 nM

## Cc1c(CN2CCC3(CC2)CN(c2ncnc4ccc(CC(F)(F)F)cc24)C3)ccc2c1cc(C#N)n2CC1CNC(=O)CO1 (stereo not drawn) [Compound 82, 4-Methyl-1-[(5-oxomorpholin-2-yl)methyl]-5-({2-[6-(2,2,2-trifluoroethyl)quinazolin-4-yl]-2,7-diazaspiro[3.5]non-7-yl}methyl)-1H-indole-2-carbonitrile]
MV4-11
  CC50: ≤ 100 nM
MOLM-13
  CC50: 100 to 500 nM
[1]
  CC50 at 7 days: 2000 to 5000 nM

## Cc1c(CN2CCC3(CC2)CN(c2ncnc4ncc(CC(F)(F)F)cc24)C3)ccc2c1cc(C#N)n2CC(C)N1CCN(S(C)(=O)=O)CC1 (stereo not drawn) [Compound 89, 4-Methyl-1-{2-[4-(methylsulfonyl)piperazin-1-yl]propyl}-5-({2-[6-(2,2,2-trifluoroethyl)pyrido[2,3-d]pyrimidin-4-yl]-2,7-diazaspiro[3.5]non-7-yl}methyl)-1H-indole-2-carbonitrile]
MV4-11
  CC50: ≤ 100 nM
MOLM-13
  CC50: 500 to 1000 nM
[1]
  CC50 at 7 days: ≤ 2000 nM

## CS(=O)(=O)N1CCN(CCn2c(C#N)cc3cc(CN4CCC5(CC4)CN(c4ncnc6ccc(CC(F)(F)F)cc46)C5)ccc32)CC1 [Compound 91, 1-{2-[4-(Methylsulfonyl)piperazin-1-yl]ethyl}-5-({2-[6-(2,2,2-trifluoroethyl)quinazolin-4-yl]-2,7-diazaspiro[3.5]non-7-yl}methyl)-1H-indole-2-carbonitrile]
MV4-11
  CC50: 500 to 1000 nM
MOLM-13
  CC50: 1000 to 5000 nM
[1]
  CC50 at 7 days: 5000 to 10000 nM

## Cc1c(CN2CCC3(CC2)CN(c2ncnc4ccc(CC(F)(F)F)cc24)C3)ccc2c1cc(C#N)n2CC(C)N1CCNC(=O)C1 (stereo not drawn) [Compound 93, 4-Methyl-1-[2-(3-oxopiperazin-1-yl)propyl]-5-({2-[6-(2,2,2-trifluoroethyl)quinazolin-4-yl]-2,7-diazaspiro[3.5]non-7-yl}methyl)-1H-indole-2-carbonitrile]
MV4-11
  CC50: ≤ 100 nM
MOLM-13
  CC50: 500 to 1000 nM
[1]
  CC50 at 7 days: 2000 to 5000 nM

## Cc1c(CN2CCC3(CC2)CN(c2ncnc4ccc(CC(F)(F)F)cc24)C3)ccc2c1cc(C#N)n2CC12CC(NC=O)(C1)C2 [Compound 95, (3-{[2-Cyano-4-methyl-5-({2-[6-(2,2,2-trifluoroethyl)quinazolin-4-yl]-2,7-diazaspiro[3.5]non-7-yl}methyl)-1H-indol-1-yl]methyl}bicyclo[1.1.1]pent-1-yl)formamide]
MV4-11
  CC50: ≤ 100 nM
MOLM-13
  CC50: 100 to 500 nM
[1]
  CC50 at 7 days: 2000 to 5000 nM

## Cc1c(CN2CCC3(CC2)CN(c2ncnc4ccc(CC(F)(F)F)cc24)C3)ccc2c1cc(C#N)n2CCN1CCOCC1 [Compound 97, 4-Methyl-1-(2-morpholin-4-ylethyl)-5-({2-[6-(2,2,2-trifluoroethyl)quinazolin-4-yl]-2,7-diazaspiro[3.5]non-7-yl}methyl)-1H-indole-2-carbonitrile]
MV4-11
  CC50: 500 to 1000 nM
MOLM-13
  CC50: 1000 to 5000 nM
[1]
  CC50 at 7 days: 2000 to 5000 nM

## N#Cc1cc2cc(CN3CCC4(CC3)CN(c3ncnc5ccc(CC(F)(F)F)cc35)C4)ccc2[nH]1 [Compound 98]
MV4-11
  CC50: 500 to 1000 nM
MOLM-13
  CC50: 1000 to 5000 nM
[1]
  CC50 at 7 days: 5000 to 10000 nM

## CN(C)C/C=C/C(=O)N1CCN(CCn2c(C#N)cc3cc(CN4CCC5(CC4)CN(c4ncnc6ccc(CC(F)(F)F)cc46)C5)ccc32)CC1 [Compound 99]
MV4-11
  CC50: 1000 to 5000 nM
MOLM-13
  CC50: 1000 to 5000 nM
[1]
  CC50 at 7 days: ≤ 2000 nM

## Cc1c(CN2CCC3(CC2)CN(c2ncnc4ccc(CC(F)(F)F)cc24)C3)ccc2c1cc(C#N)n2C[C@@H]1CCC(=O)N[C@H]1c1ccccc1 [Compound 100, 4-Methyl-1-{[(2R,3S)-6-oxo-2-phenylpiperidin-3-yl]methyl}-5-({2-[6-(2,2,2-trifluoroethyl)quinazolin-4-yl]-2,7-diazaspiro[3.5]non-7-yl}methyl)-1H-indole-2-carbonitrile]
Recombinant MEN1 protein
  EC50: 75 to 500 nM

## Cc1c(CN2CCC3(CC2)CN(c2ncnc4ccc(CC(F)(F)F)cc24)C3)ccc2c1cc(C#N)n2C[C@H]1CNC(=O)CO1 [Compound 101, 4-Methyl-1-{[(2R)-5-oxomorpholin-2-yl]methyl}-5-({2-[6-(2,2,2-trifluoroethyl)quinazolin-4-yl]-2,7-diazaspiro[3.5]non-7-yl}methyl)-1H-indole-2-carbonitrile]
MV4-11
  CC50: 100 to 500 nM
MOLM-13
  CC50: 1000 to 5000 nM
[1]
  CC50 at 7 days: 2000 to 5000 nM

## Cc1c(CN2CCC3(CC2)CN(c2ncnc4ccc(CC(F)(F)F)cc24)C3)ccc2c1cc(C#N)n2C[C@@H]1CNC(=O)CO1 [Compound 102, 4-Methyl-1-{[(2S)-5-oxomorpholin-2-yl]methyl}-5-({2-[6-(2,2,2-trifluoroethyl)quinazolin-4-yl]-2,7-diazaspiro[3.5]non-7-yl}methyl)-1H-indole-2-carbonitrile]
MV4-11
  CC50: ≤ 100 nM
MOLM-13
  CC50: 100 to 500 nM
[1]
  CC50 at 7 days: ≤ 2000 nM
